According to patent US8497281B2, “Aryl- and heteroarylcarbonyl derivatives of hexahydroindenopyridine and octahydrobenzoquinoline” (Vitae Pharmaceuticals, Inc., priority 2009, dated 2013):

Assay: Metabolic stability in pooled liver microsomes
Type: in vitro ADME, human
Details: 37° C., test compound 1 μM, microsomal protein 0.5 mg/mL, NADPH 1 mM; for half-life at 1 μM: human, pooled liver microsomes, pH 7.6, human liver microsomes, read-out: Stability in human liver microsomes, t1/2
Experimental: The metabolic degradation of the test compound is assayed at 37° C. with pooled liver microsomes from various species. The final incubation volume of 100 μl per time point contains TRIS buffer pH 7.6 at room temperature (0.1 M), magnesium chloride (5 mM), microsomal protein (0.5 mg/mL) and the test compound at a final concentration of 1 μM. Following a short preincubation period at 37° C., the reactions are initiated by addition of beta-nicotinamide adenine dinucleotide phosphate, reduced form (NADPH, 1 mM), and terminated by transferring an aliquot into solvent after different time points. After centrifugation (10000 g, 5 min), an aliquot of the supernatant is assayed by LC-MS/MS for the amount of parent compound. The half-life is determined by the slope of the semi-logarithmic plot of the concentration-time profile.

Compound: O=C(c1ccc2[nH]cnc2c1)N1CCC[C@@H]2c3ccccc3CC[C@@H]21 (relative stereo) [Example 1, (1H-Benzoimidazol-5-yl)-(cis-2,3,4a,5,6,10b-hexahydro-1H-benzo[f]quinolin-4-yl)-methanone]
- Stability in human liver microsomes, t1/2: >1.5 h

Compound: C[C@]12CCCN(C(=O)c3ccc4[nH]cnc4c3)[C@H]1CCc1ccccc12 (relative stereo) [Example 10, (1H-Benzoimidazol-5-yl)-(cis-10b-methyl-2,3,4a,5,6,10b-hexahydro-1H-benzo[f]quinolin-4-yl)-methanone]
- half-life at 1 μM: > 0.75 h

Compound: C[C@]12CCCN(C(=O)c3ccc4[nH]cnc4c3)[C@@H]1CCc1ccccc12 (relative stereo) [Example 11, (1H-Benzoimidazol-5-yl)-(trans-10b-methyl-2,3,4a,5,6,10b-hexahydro-1H-benzo[t]quinolin-4-yl)-methanone]
- half-life at 1 μM: 0.633 h

Compound: O=C(c1ccc2[nH]cnc2c1)N1CCC[C@@H]2c3cc(F)cc(F)c3CC[C@@H]21 (relative stereo) [Example 20, (1H-Benzoimidazol-5-yl)-(cis-7,9-difluoro-2,3,4a,5,6,10b-hexahydro-1H-benzo[f]quinolin-4-yl)-methanone]
- half-life at 1 μM: > 1.5 h

Compound: NC(=O)c1ccc2c(c1)CC[C@H]1[C@@H]2CCCN1C(=O)c1ccc2[nH]cnc2c1 (relative stereo) [Example 37, cis-4-(1H-Benzoimidazole-5-carbonyl)-1,2,3,4,4a,5,6,10b-octahydro-benzo[f]quinoline-8-carboxylic acid amide]
- half-life at 1 μM: > 1.5 h

Compound: N#Cc1ccc2c(c1)CC[C@H]1[C@@H]2CCCN1C(=O)c1ccc2[nH]cnc2c1 (relative stereo) [Example 42, cis-4-(1H-Benzoimidazole-5-carbonyl)-1,2,3,4,4a,5,6,10b-octahydro-benzo[f]quinoline-8-carbonitrile]
- half-life at 1 μM: > 1.5 h

Compound: N#Cc1ccc2c(c1)[C@H]1CCCN(C(=O)c3ccc4[nH]cnc4c3)[C@H]1CC2 (relative stereo) [Example 91, cis-4-(1H-Benzoimidazole-5-carbonyl)-1,2,3,4,4a,5,6,10b-octahydro-benzo[f]quinoline-9-carbonitrile]
- half-life at 1 μM: > 1.5 h

Compound: O=C(c1ccc2[nH]cnc2c1)N1CCC[C@@H]2c3ccccc3C[C@@H]21 (relative stereo) [Example 93, (1H-Benzoimidazol-5-yl)-(cis-2,3,4,4a,9,9a-hexahydro-indeno[2,1-b]pyridin-1-yl)-methanone]
- half-life at 1 μM: > 1.5 h

Compound: CC[C@]12CCCN(C(=O)c3ccc4[nH]cnc4c3)[C@@H]1CCc1ccccc12 (relative stereo) [Example 105, (1H-Benzoimidazol-5-yl)-(trans-10b-ethyl-2,3,4a,5,6,10b-hexahydro-1H-benzo[f]quinolin-4-yl)-methanone]
- half-life at 1 μM: 0.367 h

Compound: N#Cc1ccc2c(c1)[C@H]1CCCN(C(=O)c3ccc4[nH]cnc4c3)[C@H]1C2 (relative stereo) [Example 106, cis-1-(1H-Benzoimidazole-5-carbonyl)-2,3,4,4a,9,9a-hexahydro-1H-indeno[2,1-b]pyridine-6-carbonitrile]
- half-life at 1 μM: > 1.5 h

Compound: C#Cc1ccc2c(c1)[C@H]1CCCN(C(=O)c3ccc4[nH]cnc4c3)[C@H]1C2 (relative stereo) [Example 155, (1H-Benzoimidazol-5-yl)-(cis-6-ethynyl-2,3,4,4a,9,9a-hexahydro-indeno[2,1-b]pyridin-1-yl)-methanone]
- half-life at 1 μM: 0.467 h

Compound: O=C(c1ccc2[nH]cnc2c1)N1CCC[C@@H]2c3ccccc3CC[C@@H]21 [Example 2, (1H-Benzoimidazol-5-yl)-[(4a-S,10b-R)-2,3,4a,5,6,10b-hexahydro-1H-benzo[l]quinolin-4-yl]-methanone]
- Stability in human liver microsomes, t1/2: 0.483 h

Compound: N#Cc1ccc2c(c1)[C@H]1CCCN(C(=O)c3ccc4[nH]cnc4c3)[C@H]1C2 [Example 107, (4a-R,9a-S)-1-(1H-Benzoimidazole-5-carbonyl)-2,3,4,4a,9,9a-hexahydro-1H-indeno[2,1-b]pyridine-6-carbonitrile]
- half-life at 1 μM: > 1.5 h

Compound: N#Cc1ccc2c(c1)[C@@H]1CCCN(C(=O)c3ccc4[nH]cnc4c3)[C@@H]1C2 [Example 108, (4a-S,9a-R)-1-(1H-Benzoimidazole-5-carbonyl)-2,3,4,4a,9,9a-hexahydro-1H-indeno[2,1-b]pyridine-6-carbonitrile]
- half-life at 1 μM: > 1.5 h

Compound: C[C@H]1CCN(C(=O)c2ccc3[nH]cnc3c2)[C@H]2Cc3ccccc3[C@@H]12 [Example 146, (1H-Benzoimidazol-5-yl)-(cis-4-methyl-2,3,4,4a,9,9a-hexahydro-indeno[2,1-b]pyridin-1-yl)-methanone]
- half-life at 1 μM: > 0.75 h

Compound: N#Cc1ccc2c(c1)C[C@H]1[C@@H]2CCCN1C(=O)c1ccc2[nH]cnc2c1 [Example 148, (4a-R,9a-S)-1-(1H-Benzoimidazole-5-carbonyl)-2,3,4,4a,9,9a-hexahydro-1H-indeno[2,1-b]pyridine-7-carbonitrile]
- half-life at 1 μM: > 1.5 h

Compound: Cc1cc(C(=O)N2CCC[C@@H]3c4cc(C#N)ccc4C[C@@H]32)cc2nc[nH]c12 [Example 152, (4a-R,9a-S)-1-(7-Methyl-1H-benzoimidazole-5-carbonyl)-2,3,4,4a,9,9a-hexahydro-1H-indeno[2,1-b]pyridine-6-carbonitrile]
- half-life at 1 μM: > 1.5 h

Compound: Cc1cc2[nH]cnc2cc1C(=O)N1CCC[C@@H]2c3cc(C#N)ccc3C[C@@H]21 [Example 153, (4a-R,9a-S)-1-(6-Methyl-1H-benzoimidazole-5-carbonyl)-2,3,4,4a,9,9a-hexahydro-1H-indeno[2,1-b]pyridine-6-carbonitrile]
- half-life at 1 μM: > 1.5 h
